# In ChEMBL document CHEMBL2074162, “P-glycoprotein-mediated transcellular transport of MDR-reversing agents” (FEBS Lett, 1993):
# Target: ATP-dependent translocase ABCB1 (Homo sapiens, UniProt P08183)
# Test: TP_TRANSPORTER: transepithelial transport (basal to apical) in MDR1-expressing LLC-PK1 cells
# Type: functional, cell-based
# Settings: pig
# Sequence of ATP-dependent translocase ABCB1 (P08183 whole entry): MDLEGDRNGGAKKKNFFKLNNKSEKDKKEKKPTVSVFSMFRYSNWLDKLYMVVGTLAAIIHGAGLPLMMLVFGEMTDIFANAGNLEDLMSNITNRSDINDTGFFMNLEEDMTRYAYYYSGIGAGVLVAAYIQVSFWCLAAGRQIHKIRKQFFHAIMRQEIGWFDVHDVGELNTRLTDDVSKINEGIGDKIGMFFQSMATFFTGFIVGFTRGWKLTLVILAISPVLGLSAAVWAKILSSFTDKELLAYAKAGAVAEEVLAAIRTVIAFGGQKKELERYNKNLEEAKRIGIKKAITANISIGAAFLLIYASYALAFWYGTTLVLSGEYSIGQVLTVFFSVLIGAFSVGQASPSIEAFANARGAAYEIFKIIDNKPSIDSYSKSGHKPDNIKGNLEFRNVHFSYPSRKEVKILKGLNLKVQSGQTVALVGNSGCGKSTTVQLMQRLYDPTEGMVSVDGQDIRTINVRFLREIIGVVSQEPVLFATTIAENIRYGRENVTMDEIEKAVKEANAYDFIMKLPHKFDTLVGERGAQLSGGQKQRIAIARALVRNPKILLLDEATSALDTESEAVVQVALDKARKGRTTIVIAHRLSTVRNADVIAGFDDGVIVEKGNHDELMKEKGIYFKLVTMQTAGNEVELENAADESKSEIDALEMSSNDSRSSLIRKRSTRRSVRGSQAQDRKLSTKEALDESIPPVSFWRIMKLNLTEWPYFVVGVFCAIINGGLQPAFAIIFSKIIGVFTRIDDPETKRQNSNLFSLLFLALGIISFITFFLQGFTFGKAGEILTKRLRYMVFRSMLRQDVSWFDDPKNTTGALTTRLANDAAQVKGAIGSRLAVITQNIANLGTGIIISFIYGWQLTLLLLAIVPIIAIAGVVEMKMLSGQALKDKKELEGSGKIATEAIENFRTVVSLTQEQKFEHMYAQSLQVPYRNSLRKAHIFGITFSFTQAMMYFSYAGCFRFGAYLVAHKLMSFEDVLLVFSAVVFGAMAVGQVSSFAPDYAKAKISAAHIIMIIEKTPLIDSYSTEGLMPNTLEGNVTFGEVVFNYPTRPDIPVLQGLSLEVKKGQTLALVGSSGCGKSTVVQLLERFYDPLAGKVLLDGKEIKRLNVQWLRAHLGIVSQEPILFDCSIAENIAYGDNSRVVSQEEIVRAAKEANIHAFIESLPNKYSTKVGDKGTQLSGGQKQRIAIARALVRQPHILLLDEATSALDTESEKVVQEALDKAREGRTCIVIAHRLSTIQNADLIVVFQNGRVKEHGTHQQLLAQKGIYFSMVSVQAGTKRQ
row,Activity,Compound
1,substrate [+],CCOC(=O)C1=C(C)NC(C)=C(C(=O)OCCNC(=O)c2ccc(N=[N+]=[N-])cc2)C1c1ccccc1C(F)(F)F (configuration not stated) [AZIDOPINE]
2,substrate [+],COc1ccc([C@@H]2Sc3ccccc3N(CCN(C)C)C(=O)[C@@H]2OC(C)=O)cc1 [DILTIAZEM]
